In patent US20260166045A1, “COMBINATION THERAPY COMPRISING GSPT1-DIRECTED MOLECULAR GLUE DEGRADERS AND PI3K/AKT/mTOR PATHWAY INHIBITORS” (Monte Rosa Therapeutics, Inc., priority 2022, published 2026):

Columns and labels:
Test in all cases: CellTiter-Glo 2.0 cell viability, 7x7 combination dose response matrix, synergy scoring
Type in all cases: cell-based
NCI-H1155 cell line = conditions: first compound 1.05-500 nM
Source text: (§1) A study was undertaken to determine whether the combination of a GSPT1-directed MGD and an inhibitor of the PI3K/AKT/mTOR pathway could be effective in killing cancer cells and whether certain combination could elicit a greater than additive effect on cell killing.
(§2) FIG. 1 is a flow diagram of the method used to assess cancer cell killing by a combination of a GSPT1-directed MGD and an inhibitor of the PI3K/AKT/mTOR pathway. Certain of the materials and equipment used in the studies are presented in Table 3 and the cell lines used are presented in Table 4.
(§3) All assays were run in triplicate. Each 384-well plate accommodated six 7×7 dose response matrices (FIG. 2). All compound handling was performed using an Echo 650 Series Acoustic Liquid Handler, which enables fully automated, precise, contact-free acoustic transfer in volumes as low as 2.5 nL.
(§4) The following protocol was used for cell plating: • 1. Warm media to room temperature or 37° C. • 2. Prepare complete phenol-free media by adding 10% FBS+1% Pen-Strep to RPMI 1640 Medium or DMEM. • 3. Aspirate media from T175 tissue culture flask and rinse with 10 ml PBS. • 4. Aspirate PBS and add 2 mL 0.25% trypsin. Incubate the flask at 37° C. for 5 min or until cells are detached. • 5. Add 10 mL complete media to the flask to neutralize the trypsin, then collect cells in a 50 mL conical tube. • 6. Centrifuge cells at 300 g for 5 min. Aspirate media and suspend cell pellet in fresh media. Use cell strainer to strain cells into a new 50 mL conical tube. • 7. […] Mix 100 uL cell suspension with 100 uL trypan blue (1:1) and pipette 20 μL of the mixture into each of 2 counting chambers on a slide. Insert slide. • b. Adjust focus and record the live cell count. At least 2 independent measurements should be taken. […] Cell viability should be greater than 90%. […] Dilute cell suspension to the desired concentration (20000 cells/mL) using complete phenol-free media. Prepare 10 mL cell suspension per plate+an extra 10 mL for priming the liquid handler. • 9. Dispense cells into 384-well plates using the liquid handler at 25 uL/well (500 cells/well). 3 plates should be prepared per compound plate to be treated. • 10. Cells should be dispensed into columns 1-23 only. Media only (no cells) should be dispensed into column 24. • 11. Allow plates to rest at RT for 30 minutes before transferring to the incubator. Incubate cells overnight at 37° C., 95% humidity, and 5% CO2.
(§5) Compound plates were prepared as follows using an Echo 650 Series Acoustic Liquid Handler. • 1. A compound plate containing 7-point dose responses of each compound to be treated is first prepared from stock compounds. • 2. The cell plates are treated with compounds according to the following maps, where the first compound is added across all six 7 by 7 dose response matrices, and its concentration varies by row (FIG. 2; top matrix), whereas the second compound varies for each dose response matrix, and its concentration varies by column (FIG. 2; bottom matrix). Each cell plate receives one Compound A and six different Compound Bs. • 3. To prepare a compound plate, 384-well PP plate with stock compounds (highest concentration) is prepared. Compounds are diluted 1:1000 in the cell plates, e.g. 10 mM on compound plate will be 10 uM on cell plate. A 384-well LDV plate with pre-determined volumes of DMSO is prepared. Echo is used to dilute stock compounds from PP plate into LDV plate to prepare 7-point dose responses.
(§6) Compounds were added to the cells and cell viability was measured after 72 hour incubation using CellTiter-Glo 2.0 Cell Viability Assay (Promega): • 1. For a compound addition, Echo is used to transfer 25 nL from the compound plate wells to the cell plates according to the plate maps shown in FIG. 2. Cell plates are treated in triplicate. Each well of the cell plate has 25 uL media (1:1000 dilution). Incubate cells post-treatment at 37° C., 95% humidity, and 5% CO2 for 72 hrs (step 106). • 2. […]

CAL51 cell line = conditions: CAL51, first compound 4.1-1000 nM
Source text: as §1, §2, §3, §4, §5, §6

MDA-MB-157 cell line = conditions: first compound 4.1-1000 nM
Source text: as §1, §2, §3, §4, §5, §6

MDA-MB-231 cell line = test system: MDA-MB-231 cell line
Source text: as §1, §2, §3, §4, §5, §6

NCI-H2023 cell line = conditions: NCI-H2023, first compound 1.05-500 nM
Source text: as §1, §2, §3, §4, §5, §6

[1] = combined with GNE-477 21-10000 nM
[2] = combined with KU-0063794 21-10000 nM
[3] = combined with M2698 21-10000 nM
[4] = combined with Alpelisib 41-10000 nM
[5] = combined with Capivasertib 41-10000 nM
[6] = combined with Everolimus 41-10000 nM
[7] = combined with GNE-477 41-10000 nM
[8] = combined with KU-0063794 41-10000 nM
[9] = combined with M2698 41-10000 nM
[10] = MDA-MB-231, combined with Alpelisib 41-10000 nM, first compound 4.1-1000 nM
[11] = MDA-MB-231, combined with Capivasertib 41-10000 nM, first compound 4.1-1000 nM
[12] = MDA-MB-231, combined with Everolimus 41-10000 nM, first compound 4.1-1000 nM
[13] = MDA-MB-231, combined with GNE-477 41-10000 nM, first compound 4.1-1000 nM
[14] = MDA-MB-231, combined with KU-0063794 41-10000 nM, first compound 4.1-1000 nM
[15] = MDA-MB-231, combined with M2698 41-10000 nM, first compound 4.1-1000 nM

O=C1CCC(N2Cc3ccc(COC(=O)Nc4cc(OC(F)(F)F)ccc4F)cc3C2=O)C(=O)N1 (stereo not shown) [Compound 1-1, [2-(2,6-dioxopiperidin-3-yl)-3-oxo-2,3-dihydro-1H-isoindol-5-yl]methyl N-[2-fluoro-5-(trifluoromethoxy)phenyl]carbamate]
Mean Bliss synergy score (NCI-H1155 cell line; [1]): 1.97 | Mean Loewe synergy score (NCI-H1155 cell line; [1]): 4.77 | Mean Bliss synergy score (NCI-H1155 cell line; [2]): 0.38 | Mean Loewe synergy score (NCI-H1155 cell line; [2]): 3.70 | Mean Bliss synergy score (NCI-H1155 cell line; [3]): 1.48 | Mean Loewe synergy score (NCI-H1155 cell line; [3]): 5.14 | Mean Bliss synergy score (CAL51 cell line; [4]): 14.61 | Mean Loewe synergy score (CAL51 cell line; [4]): 11.03 | Mean Bliss synergy score (CAL51 cell line; [5]): 32.32 | Mean Loewe synergy score (CAL51 cell line; [5]): 28.73 | Mean Bliss synergy score (CAL51 cell line; [6]): 29.55 | Mean Loewe synergy score (CAL51 cell line; [6]): 34.51 | Mean Bliss synergy score (CAL51 cell line; [7]): 12.11 | Mean Loewe synergy score (CAL51 cell line; [7]): 12.09 | Mean Bliss synergy score (CAL51 cell line; [8]): 20.80 | Mean Loewe synergy score (CAL51 cell line; [8]): 19.07 | Mean Bliss synergy score (CAL51 cell line; [9]): 18.29 | Mean Loewe synergy score (CAL51 cell line; [9]): 22.14 | Mean Bliss synergy score (MDA-MB-157 cell line; [4]): −2.43 | Mean Loewe synergy score (MDA-MB-157 cell line; [4]): 2.54 | Mean Bliss synergy score (MDA-MB-157 cell line; [5]): 3.83 | Mean Loewe synergy score (MDA-MB-157 cell line; [5]): 7.36 | Mean Bliss synergy score (MDA-MB-157 cell line; [6]): 1.61 | Mean Loewe synergy score (MDA-MB-157 cell line; [6]): 8.84 | Mean Bliss synergy score (MDA-MB-157 cell line; [7]): 1.72 | Mean Loewe synergy score (MDA-MB-157 cell line; [7]): 6.42 | Mean Bliss synergy score (MDA-MB-157 cell line; [8]): 2.25 | Mean Loewe synergy score (MDA-MB-157 cell line; [8]): 6.64 | Mean Bliss synergy score (MDA-MB-157 cell line; [9]): 4.89 | Mean Loewe synergy score (MDA-MB-157 cell line; [9]): 7.65 | Mean Bliss synergy score (MDA-MB-231 cell line; [10]): −0.82 | Mean Loewe synergy score (MDA-MB-231 cell line; [10]): 5.41 | Mean Bliss synergy score (MDA-MB-231 cell line; [11]): 6.44 | Mean Loewe synergy score (MDA-MB-231 cell line; [11]): 8.02 | Mean Bliss synergy score (MDA-MB-231 cell line; [12]): 12.28 | Mean Loewe synergy score (MDA-MB-231 cell line; [12]): 15.50 | Mean Bliss synergy score (MDA-MB-231 cell line; [13]): 4.62 | Mean Loewe synergy score (MDA-MB-231 cell line; [13]): 12.93 | Mean Bliss synergy score (MDA-MB-231 cell line; [14]): 4.80 | Mean Loewe synergy score (MDA-MB-231 cell line; [14]): 9.37 | Mean Bliss synergy score (MDA-MB-231 cell line; [15]): 3.71 | Mean Loewe synergy score (MDA-MB-231 cell line; [15]): 11.94 | Mean Bliss synergy score (MDA-MB-231 cell line; combined with M2698, MDA-MB-231 cell line, mean across dose response matrix, 72 hrs): 4.89 | Mean Bliss synergy score (NCI-H2023 cell line; [1]): 16.57 | Mean Loewe synergy score (NCI-H2023 cell line; [1]): 4.95 | Mean Bliss synergy score (NCI-H2023 cell line; [2]): 16.57 | Mean Loewe synergy score (NCI-H2023 cell line; [2]): 7.27 | Mean Bliss synergy score (NCI-H2023 cell line; [3]): 10.90 | Mean Loewe synergy score (NCI-H2023 cell line; [3]): 9.33
